Assay results published in patent US12422427B2, “Compounds for treatment of diseases and methods of screening therefor” (Max-Planck-Gesellschaft zur Förderung der Wissenschaften …, priority 2018, dated 2025).
Entries after “also recorded” stand apart in the source; their conditions may differ.

Tests used:
[1] = in vivo; cited from earlier work
[2] = test system: D. melanogaster overexpressing human wild type FUS or ALS-associated FUS mutations; assay: Climbing assay: motor defects in D. melanogaster expressing human FUS; format: in vivo, Drosophila melanogaster; conditions: for motor defect / ability to climb: flies expressing wild-type FUS, FUS P525L or FUS R521C
Protocol: All Drosophila stocks were maintained on standard cornmeal at 25° C. in light/dark controlled incubator. The w1118, UAS-eGFP, and D42-GAL4 were obtained from Bloomington stock center. The UAS-FUS WT, UAS-FUS P525L, and UAS-FUS R521C were previously described in Anderson et al. (Hum. Mol. Genet. 27, 1366-1381, 2018).
Climbing assays were performed as previously described. Briefly, flies expressing FUS, eGFP or w1118 were grown in the presence or absence of (±)-α-Lipoic Acid (0.43 mM or 2.15 mM diluted in ethanol), (R)-(+)-α-Lipoic Acid (0.43 mM or 2.15 mM diluted in ethanol), (S)-(−)-α-Lipoic Acid (0.43 mM or 2.15 mM diluted in ethanol), (±)-α-Lipoamide (0.43 mM diluted in DMSO), or PP 242/Torkinib (10 μM or 50 μM diluted in DMSO), then anesthetised, placed into vials and allowed to acclimatise for 15 mins in new vials. For each fly genotype, the vial was knocked three times on the base on a bench and a video camera was used to record the flies climbing up the vial walls. The percentage of flies that climbed 4 cm in 30 s was recorded. Statistical analysis was carried out in GraphPad Prism 6 using either Student's T-test or one-way ANOVA with Tukey's or Dunnet's multiple comparisons test.

[3] = test system: EWSR1, TIAL1, PABPC1, G3BP1; assay: Panel of HeLa lines expressing GFP-labelled stress granule proteins, arsenate stress; format: cell-based; conditions: 1 mM arsenate, 10 μM compound
Protocol: It was anticipated that a useful therapeutic would prevent all PLD-containing stress granule proteins from localising to stress granules. The inventors used 1 mM arsenate to stress a panel of HeLa cell lines expressing GFP fusions of stress granule proteins (EWSR1, TIAL1, PABPC1, G3BP1) with either no treatment or 10 μM lipoic acid or lipoamide.
Compound effects were assessed under a variety of conditions in HeLa or iPS cells expressing wild-type or P525L FUS GFP by live cell imaging. Different combinations of 1 h pre-treatment compound or pre-stress with arsenate followed by 1 h treatment with compound and/or stress with arsenate. Unless otherwise indicated, cells were pre-treated for 1 h using 10 μM compound from 10 mM stock in DMSO (or an equal volume of DMSO control) then stressed for 1 h with 1 mM potassium arsenate still in the presence of compound. GFP fluorescence was imaged by widefield epifluorescence using an inverted Olympus IX71 microscope with an Olympus 100× NA 1.4 Plan Apo oil immersion objective and a CoolSNAP HQ CCD camera (Photometrics), using a DeltaVision climate control unit (37° C., 5% CO2) (Applied Precision). The kinetics of pre-stress followed by treatment was analysed from images captured at 2 min intervals for 100 min, for single time points images were captured after 1 h unless otherwise indicated.

G156E FUS GFP = biological target: T1, G156E FUS GFP (Homo sapiens, UniProt P35637, G156E); assay: In vitro FUS GFP solidification (aging, fibre formation, FRAP); format: biochemical; conditions: for fibre formation of G156E FUS / hardening of FUS droplets (FRAP mobile fraction): 30 μM, aging while shaking, 1 mM DTT
T1 construct: His MBP (N, cleaved yes); made in house; host or cells: baculovirus/insect cell expression system
T1 sequence (P35637 1-526 G156E): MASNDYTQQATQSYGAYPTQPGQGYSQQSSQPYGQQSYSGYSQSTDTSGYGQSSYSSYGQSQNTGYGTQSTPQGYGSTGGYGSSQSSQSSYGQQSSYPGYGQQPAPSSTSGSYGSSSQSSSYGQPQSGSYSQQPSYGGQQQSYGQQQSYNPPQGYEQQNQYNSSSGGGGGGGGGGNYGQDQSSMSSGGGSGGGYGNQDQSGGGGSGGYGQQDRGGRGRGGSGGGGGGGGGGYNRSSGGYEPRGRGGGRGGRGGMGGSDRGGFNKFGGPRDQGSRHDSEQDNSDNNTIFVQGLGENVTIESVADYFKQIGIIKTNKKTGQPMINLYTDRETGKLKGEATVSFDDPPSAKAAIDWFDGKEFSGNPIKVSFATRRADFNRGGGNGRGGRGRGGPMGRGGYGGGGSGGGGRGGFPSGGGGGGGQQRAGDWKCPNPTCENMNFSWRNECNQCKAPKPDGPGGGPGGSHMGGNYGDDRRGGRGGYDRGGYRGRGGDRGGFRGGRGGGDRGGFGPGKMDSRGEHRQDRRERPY
Protocol: Therefore, hardening and fibre formation, another kinetic phenomenon, were analysed. In vitro FUS droplets ‘age’ over time, first hardening then tending to form amyloid/prion-like fibres. This is accelerated for G156E FUS, a mutation associated with familial ALS.
For in vitro solidification assays, FUS GFP in storage buffer was diluted in water to give 10 μM FUS, 50 mM Tris·HCl pH 7.4 and 1 mM DTT in a 20 μl volume in non-binding clear bottom 384 well plates (Greiner Bio-One, 781906). […] Fibre and droplet formation were analysed by widefield epifluorescence using a DeltaVision Elite microscope (GE Healthcare Life Sciences) with a Plan ApoN 60× NA 1.4 oil immersion objective (Olympus) and an sCMOS camera (PCO). For salt sensitivity of droplet formation FUS GFP in storage buffer was diluted in the appropriate concentration of KCl pre-mixed with compound or DMSO to generate the final KCl concentration series with 30 μM compound concentration and 0.3% DMSO.
Fluorescence recovery after photobleaching (FRAP) of FUS GFP droplets and fibres was performed on a Nikon TiE inverted microscope with a Nikon Apo 100× NA 1.49 oil immersion objective using a Yokogawa CSU-X1 spinning disc head and an Andor iXon EM+ DU-897 EMCCD camera. 10×10 px regions were bleached for […] with a 6 mW 405 nm laser using an Andor FRAPPA beam delivery unit then imaged for 5 min at 5 Hz. Recovery curve half-life and mobile fraction were calculated in ImageJ.

With `NC(=O)CCCCC1CCSS1` (racemic) [lipoamide, 5-(1,2-dithiolan-3-yl)pentanamide] as the compound, how does the toxicity [1] read?
The toxicity was “non-toxic”.

And the “motor defect / ability to climb” value [2]?
The value was “recovers defects in motor function”.

And the “localisation of EWSR1, TIAL1, PABPC1, G3BP1 GFP to stress granules” value [3]?
The value was “localised to stress granules in the absence of treatment, and not in the presence”.

And the “FRAP of aged G156E FUS GFP condensates” value (G156E FUS GFP; 10 μM lipoamide, dextran crowding, vs 0.1% DMSO)?
Its value is “maintain large FUS GFP mobile fraction and short FRAP half-life”.

What about the “fibre formation of G156E FUS” value (G156E FUS GFP) of the same compound?
Its value is “delayed fibre formation”.

And the “hardening of FUS droplets (FRAP mobile fraction)” value (G156E FUS GFP)?
The value was “delayed hardening of FUS droplets”.

With `O=C(O)CCCCC1CCSS1` (racemic) [lipoic acid, 5-(1,2-dithiolan-3-yl)pentanoic acid] as the compound, how does the toxicity [1] read?
Its toxicity is “non-toxic”.

What about the “motor defect / ability to climb” value [2] of the same compound?
Its value is “recovered the motor defect in a dose-dependent manner; also recorded: dose-dependent increase in the ability”.

What about the “flies able to climb 4 cm in 30 s” value ([2]; food supplementation, from ˜50% without) of the same compound?
The value was over 80%.

What about the “localisation of EWSR1, TIAL1, PABPC1, G3BP1 GFP to stress granules” value [3] of the same compound?
Its value is “localised to stress granules in the absence of treatment, and not in the presence”.

What about the “fibre formation of G156E FUS” value (G156E FUS GFP) of the same compound?
The value was “delayed fibre formation”.

What about the “hardening of FUS droplets (FRAP mobile fraction)” value (G156E FUS GFP) of the same compound?
The value was “delayed hardening of FUS droplets”.
